In article PMC9518609, “Design and synthesis of new trimethoxylphenyl-linked combretastatin analogues loaded on diamond nanoparticles as a panel for ameliorated solubility and antiproliferative activity” (Journal of Enzyme Inhibition and Medicinal Chemistry, 2022):

Columns and labels:
Type in all cases: cell-based
MCF-10A = test: MTT cytotoxic activity against breast MCF-10A cell line; conditions: MTT assay, 24 h treatment
From the text: All the synthesised compounds were screened for their cytotoxic activity against breast MDA-MB-231 cancer cell line and compounds 6 and 12 against breast MCF-10A cell line taking CA-4 as a positive control for the analysis. The in vitro cytotoxicity results of the prepared compounds were systematised in Table 1. […] Structurally, the prepared molecules contain three structural variations; including rotatable hydrazide derivatives, the core exchange with imidazolone ring, and the ring expansion with triazinone motif. […] It is noticed that directly attached benzene ring to triazinone scaffold (compound 6) or bioisosteric group (thiazolyl ester) as in compound 12, may contribute to the astonishing cytotoxicity against breast MDA-MB-231 cancer cells.
(§1) Part I: Biological Studies
(§2) 4.3. Biological evaluation
(§3) 4.3.1. Cytotoxic activity evaluation
(§4) The cytotoxic actvity of the synthesized derivatives 2a-13e was measured in MDA-MB-231 breast cancer cell line and derivatives 6 and 12 in MCF-10A […].
(§5) Cell viability assay was assessed using MTT assay method. Cells at density of 1 x 104 were seeded in a 96-well plate at 37 °C for 24 h under 5% CO2. After incubation, the cells were treated with different concentrations of the test schiff bases 2a-13e and incubated for 24 h, then 20 µl of MTT solution at 5 mg/mL was applied and incubated for 4 h at 37 °C.
Dimethyl sulphoxide (DMSO) in volume of 100 µl was added to each well to dissolve the purple formazan that had formed. The color intensity of the formazan product, which represents the growth condition of the cells, is quantified by using an ELISA plate reader (EXL 800, USA) at 570 nm absorbance. […]
(§6) Compounds 6, 12 and CA-4 were evaluated for their tubulin inhibitory activity according to manufacturer’s instructions using # abcam Human Beta-tubulin simplestep ELISA Kit ab245722. MDA-MB-231 cells were trypsinized, counted and seeded at the 2 × 105 into 96-well micro titer plates. […]
(§7) (O.D.) was measured at 450±10 nm using microplate reader (Spectromax Plus 96 well plate […]

β-tubulin = β-tubulin polymerisation inhibition assay (Human Beta-tubulin ELISA kit) on MDA-MB-231 cells; conditions: MDA-MB-231 cell line, each compound at its IC50 concentration
Description: Trimethoxy phenyl fragment-containing natural stilbenoid-derived molecules, such as Colchicine and CA-4 bind to β-tubulin subunit at the colchicine binding site resulting in inhibition of microtubule assembly and suppression of its formation. […] From the obtained results it can be concluded that the antiproliferative activity of the synthesised triazinone-linked CA-4 derivatives may be derived from the inhibition of microtubule assembly.
Triazinone derivatives 6 and 12 were assessed for their tubulin inhibitory activity according to manufacturer’s instructions using # abcam Human Beta-tubulin simple step ELISA Kit ab245722.
as §1, §2, §3, §4, §5
Dimethyl sulphoxide (DMSO) in volume of 100 µl was added to each well to dissolve the purple formazan that had formed. The color intensity of the formazan product, which represents the growth condition of the cells, is quantified by using an ELISA plate reader (EXL 800, USA) at 570 nm absorbance. The experimental conditions were carried out with at least three replicates, and the experiments were repeated at least three times.
4.3.2. Tubulin inhibitions Assay
as §6, §7

caspase 3/7 = test: Caspase 3/7 green flow cytometry assay in MDA-MB-231 cells; conditions: MDA-MB-231, at IC50, 24 h
From the text: Further, it is important to check effector caspase 3/7. The cleavage of caspases is specifically responsible for programmed cell death and apoptosis. […] The results were shown in Figure 5 and the expression level of caspase 3/7 was increased when compared with no control cells.
Caspase 3/7 in MDA-MB-231 cells was detected using CellEvent® Caspase 3/7 Green Detection Flow Cytometry Assay Kit. Caspase 3/7 activity in the MDA-MB-231 cell line was detected in the presence of compounds 6 and 12 at their IC50 concentration (µM) using CellEvent® caspase 3/7 green detection flow cytometry assay kit according to the manufacturer’s directions. All experimental steps were conducted as reported earlier.
4.3.4.3. Caspase 3/7 assay for compounds 6 and 12
Caspase 3/7 in MDA-MB-231 cells was investigated using CellEvent® Caspase 3/7 Green Detection Flow Cytometry Assay Kit. Caspase 3/7 activity in MDA-MB-231 cell line was detected in the presence of compounds 6 and 12 at their IC50 concentration (µM) using CellEvent® caspase 3/7 green detection flow cytometry assay kit according to manufacturer’s directions. […] cells at a density of 2.5 × 10^5 per well were harvested and washed with ice cold PBS, and cell lysates were prepared and combined with reaction buffer and incubated with specific colorimetric substrates (Caspase 3/7 Detection Reagent) at 37 °C for 6 h. Detection reagent is composed of DNA binding dye conjugated to caspase 3 and caspase 7 recognition sequence (DEVD) by a short peptide linker. The released DNA binding dye binds DNA producing a bright and stable signal. Finally, the samples were analyzed at 488 nm in a BD FACS Calibur flow cytometer. All experiments were performed in triplicates.
Information Classification: General 4

Compound	IC50 (MCF-10A; Homo sapiens, MCF-10A) [µM]	% Inhibition of β-tubulin polymerisation (β-tubulin) [%]	Casp3/7 (percentage of activated caspase 3/7) (caspase 3/7) [%]	increase in caspase 3/7 activation relative to untreated control (caspase 3/7)	IC50 (MCF-10A) [µM]
COc1cc(C=C2N=C(c3cc(OC)c(OC)c(OC)c3)N(c3ccccc3)NC2=O)cc(OC)c1OC [Compound 6, 2-phenyl-5-(3,4,5-trimethoxybenzylidene)-3-(3,4,5-trimethoxyphenyl)-1,2-dihydro-1,2,4-triazin-6(5H)-one]	19.5 ± 2.15	77.61 ± 0.10	12.87	about 15.70 fold	
ethyl 2-(2-(6-oxo-5-(3,4,5-trimethoxybenzylidene)-3–(3,4,5-trimethoxyphenyl)-5,6-dihydro-1,2,4-triazin-2(1H)-yl)thiazol-4-yl)acetate [Compound 12]		68.28 ± 0.16	7.51	~9.16 fold	14.6 ± 1.96
